This test deals with CEM cells HIV-1 protection, formazan growth assay. Kind of test: NCI AIDS Antiviral Assay. The following applies: for IC50: measured here: growth of uninfected CEM cells. The essentials:
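Category rules: moderately active means at least 50% protection on retest, and confirmed active means 100% protection reproducibly. The underlying data came from a formazan growth assay in HIV-1-infected CEM cells.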

Molecules are shown by their SMILES. Where “and” joins values, the source holds several entries; their conditions need not be identical. Identical values can stand only once. Calls of active or inactive are those of the source.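 How the source made its calls: active means compounds giving half or more protection of infected cells from virus-caused growth loss, again on retest; inactive means the rest.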 Where a SMILES comes first, the peptide text is derived from it. [ ]: non-standard residue; d: D form. The star is where a group is joined. X10 = CC(C)CN(C[C@@H](O)[C@H](Cc1ccc(OCC(=O)*)cc1)NC(=O)O[C@H]1CCOC1)S(=O)(=O)c1ccc(N)cc1; NMeLeu(3R-OH) = CN[C@H](C(=O)O)[C@H](O)C(C)C; NMeL = CN[C@@H](CC(C)C)C(=O)O; NMeV = CN[C@H](C(=O)O)C(C)C; dNMeS = CN[C@H](CO)C(=O)O; Abu = CC[C@H](N)C(=O)O

Regarding `COc1cc(OC)c(/C=C2\N=C(C)N(Nc3nnc(NN4C(=O)/C(=C/c5c(OC)cc(OC)cc5OC)N=C4C)c4ccccc34)C2=O)c(OC)c1`, the outcome was inactive.

As usually defined, the EC50 is the concentration needed to bring the measured effect to its halfway point. A word on the IC50: it is the midpoint of a concentration-inhibition curve. Consider `CC(C)=CC(=O)C1c2cccc(O)c2C(=O)c2c(O)cc(C)cc21` (stereo unspecified), for which the EC50 was over 30.9 µM and the half-inhibitory concentration (IC50) was determined as 10.2 µM.

For the molecule `CC(C)(C)OC(=O)NC1CCCC1=O` (stereo unspecified), the result was inactive.

`Cc1ccccc1N(CCC#N)C1=NN(C(=O)CC(=O)Nc2ccccc2)C(c2ccccc2)C1` (stereo unspecified): the EC50 is over 77.6 µM and the IC50 was over 77.6 µM.

Take `S=C1NCCS1`: the EC50 is over 2090 µM and the half-inhibitory concentration (IC50) worked out at 1170 µM.

For the molecule `CCCCCCCCCCCCCCCC(=O)ON1C(=S)NC(C)(c2ccccc2)C1=S` (stereo unspecified), the EC50 is over 200 µM and the IC50 came to 77.6 µM.

For the molecule `c1nn2cnnc2s1`, the outcome was inactive.

As for `N#CNC(N)=NCc1ccccc1`, the EC50 was 155 µM and the concentration for half-maximal inhibition (IC50) is 204 µM.

As for `CCN(CC)CCOC(=O)CCN1CC2CCC(CC2)C1`, the EC50 was over 200 µM and the IC50 was over 200 µM.

`CC[C@@H]1NC(=O)[C@H]([C@H](O)C(C)C)N(C)C(=O)[C@H](C(C)C)N(C)C(=O)[C@H](CC(C)C)N(C)C(=O)[C@H](CC(C)C)N(C)C(=O)[C@@H](C)NC(=O)[C@H](CCCCNC(=O)COc2ccc(C[C@H](NC(=O)O[C@H]3CCOC3)[C@H](O)CN(CC(C)C)S(=O)(=O)c3ccc(N)cc3)cc2)NC(=O)[C@H](CC(C)C)N(C)C(=O)[C@H](C(C)C)NC(=O)[C@H](CC(C)C)N(C)C(=O)[C@@H](CO)N(C)C1=O` (cyclo([NMeLeu(3R-OH)][Abu][dNMeS][NMeL]V[NMeL]K(X10)[dA][NMeL][NMeL][NMeV])): the 50% effective concentration (EC50) was 0.0501 µM and the half-inhibitory concentration (IC50) turned out to be 42.7 µM.

Take `O=C1NC(N2CCCCC2)=N/C1=C\c1ccco1`: the EC50 is over 200 µM and the concentration for half-maximal inhibition (IC50) was over 200 µM.

On to `O=S(=O)(O)c1ccc2c(N=NNc3ccc(NN=Nc4cccc5cc(S(=O)(=O)O)ccc45)cc3)cccc2c1`, for which the EC50 was over 759 µM and the half-inhibitory concentration (IC50) turned out to be 457 µM.

In the case of `COc1ccc(-c2sc(/N=C/c3cc(OC)c(OC)c(OC)c3)c(C#N)c2C)cc1OC`, the EC50 was over 200 µM and the concentration for half-maximal inhibition (IC50) is 11.2 µM.

Take `CC(C)(C)OC(=O)N(CCCCNCc1ccc2ccccc2c1)CCCNCc1ccc2ccccc2c1`: the EC50 is over 2 µM and the IC50 is 1.05 µM.

`CN(C)P1(=O)OCC2CCC[C@@H]2O1` (stereo partly specified): the outcome was inactive.

Turning to `O=C(CCn1ccnc1)N1CCN(c2ccccc2)CC1`, the EC50 was over 871 µM and the IC50 was determined as 646 µM.

On to `CC1C(=O)N(c2ccccc2)NC12CCCc1ccccc12` (stereo unspecified), for which the EC50 was over 200 µM and the IC50 worked out at 91.2 µM.

Regarding `CCC1(O)CC(OC2CC(N(C)C)C(OC3CC4OC5CC(=O)C(C)OC5OC4C(C)O3)C(C)O2)c2c(cc3c(c2O)C(=O)c2c(O)ccc(O)c2C3=O)C1C(=O)OC` (stereo unspecified), the EC50 was over 2.4 µM; the half-maximal inhibitory concentration (IC50) is 0.0155 µM and 0.012 µM.

On to `CCC[CH2][Ge]([CH2]CCC)([CH2]CCC)[O]C(=O)C(OC)c1ccccc1` (stereo unspecified), for which the EC50 is over 151 µM and the half-maximal inhibitory concentration (IC50) was 7.41 µM.

On to `O=c1c2nc3ccccc3c(=O)n2ncn1-c1ccccc1Cl`, for which the EC50 was over 200 µM and the IC50 is over 200 µM.

Turning to `COC12C=CC(CC1)C1=C2C(=O)c2nc(C)c(C)nc2C1=O` (stereo unspecified), the EC50 was over 63.1 µM and the IC50 was found to be 39.8 µM.

In the case of `COc1cc2c(cc1O)C(Cc1ccc(Oc3cc(CC4c5cc(O)c(OC)cc5CCN4C)ccc3O)cc1)N(C)CC2` (stereo unspecified), the outcome was inactive.

Regarding `CC1(C)O[C@@H]2[C@@H](COC(=O)c3ccccc3)C[C@@H](C#N)[C@@H]2O1`, the EC50 was over 200 µM and the 50% inhibitory concentration (IC50) was over 200 µM.

For `Cc1ccc(C)c(NC(=O)CCC(=O)CC(=O)C(C)(C)C)c1`, the result was inactive.

For the molecule `O=Nc1ccc(O)cc1O`, the EC50 was over 200 µM and the IC50 was determined as 148 µM.

Regarding `O=C1/C(=C/c2ccc([N+](=O)[O-])cc2)Oc2cc(O)ccc21`, the EC50 was over 200 µM and the IC50 worked out at 35.5 µM.

Turning to `CC(=O)Nc1ccc(NCC(=O)Nn2cnc3ccc(S(=O)(=O)Nc4ccc(NC(C)=O)cc4)cc3c2=O)cc1`, the EC50 is over 200 µM and the half-maximal inhibitory concentration (IC50) is 191 µM.

Regarding `CC(=O)OCC1OC(Sc2nc(-c3ccccc3)c(C#N)c(=O)n2C2OC(COC(C)=O)C(OC(C)=O)C(OC(C)=O)C2OC(C)=O)C(OC(C)=O)C(OC(C)=O)C1OC(C)=O` (stereo unspecified), the EC50 is over 151 µM and the IC50 is 19.5 µM.

`COC(=O)N1[C@H]2Cc3c(OC)c(C)c(OC)c(OC)c3[C@@H]1/C(=C\c1cc(OC)c(OC)c(C)c1OC)N(Cc1ccccc1)C2=O`: the outcome was inactive.

For the molecule `Cc1[nH]c(=O)nc2[nH][nH]c(=O)c12`, the result was inactive.

Consider `Cc1ccc([N+](=O)[O-])cc1NC(=O)Nc1onc(C)c1C`, for which the EC50 was over 200 µM and the IC50 was found to be 9.77 µM.

In the case of `CC(=O)[C@H]1CCC2[C@@H]3CC=C4C[C@@H](OC5OC(COS(=O)(=O)O)C(O)C(O)C5O)CC[C@]4(C)C3CC[C@@]21C` (stereo partly specified), the EC50 is over 38 µM and the IC50 was over 38 µM.

With `Cc1cc2c(cc1C)[n+](=O)c(C(=O)CC(=O)C(=O)Nc1c(C(C)C)cccc1C(C)C)c(C)n2[O-]`, the EC50 was over 7.94 µM and the IC50 is over 7.94 µM.

In the case of `O=C(CCc1ccccc1)NCCc1ccc(O)c(O)c1`, the EC50 was over 200 µM and the half-inhibitory concentration (IC50) turned out to be 14.8 µM.

As to `CCCCC1C(=O)N2c3ccccc3-c3ccccc3N2C1=O`, the outcome was inactive.

In the case of `O=c1cn[nH]c2ccc(Br)cc12`, the EC50 is over 95.5 µM and the IC50 is over 95.5 µM.

As to `CCOP(=S)(NN=C1CCCC1)OCC`, the EC50 is over 200 µM and the concentration for half-maximal inhibition (IC50) was over 200 µM.

Turning to `[N-]=[N+]=CC(=O)OC(CCl)CCl`, the EC50 was over 200 µM and the half-inhibitory concentration (IC50) was over 200 µM.

On to `Nc1nnnn1NC(=O)NCCCl`, for which the EC50 is over 200 µM and the IC50 was over 200 µM.

Take `O=Cc1c(C(=O)O)[nH]c(=O)[nH]c1=O`: the EC50 is over 200 µM and the half-inhibitory concentration (IC50) is over 200 µM.

As to `O=C(O)CSCc1cc(C(=O)Nc2ccc(/C=C/c3ccc(NC(=O)c4cc(CSCC(=O)O)c5cccnc5c4O)cc3S(=O)(=O)O)c(S(=O)(=O)O)c2)c(O)c2ncccc12`, the EC50 is 0.832 µM and the half-maximal inhibitory concentration (IC50) turned out to be 22.4 µM.

On to `CC(C(=O)O)c1ccc(-n2nnc3c(=O)[nH][nH]c(=O)c32)cc1` (stereo unspecified), for which the EC50 was over 200 µM and the IC50 is over 200 µM.

In the case of `CCCCCCC(O)CC[C@H]1CCC[C@@H](C)N1` (stereo partly specified), the outcome was inactive.

For `Cc1ccc(S(=O)(=O)OC(C=O)C(O)C(O)COC(c2ccccc2)(c2ccccc2)c2ccccc2)cc1` (stereo unspecified), the EC50 was over 24.5 µM and the IC50 is over 24.5 µM.

Consider `CC1(OCc2ccccc2)C(=O)N2C1NCC2(C)C` (stereo unspecified), for which the EC50 was over 251 µM and the 50% inhibitory concentration (IC50) is 117 µM.

In the case of `COC(=O)[C@@H](O)[C@]1(C(=O)OC)C2O[C@@H](OC)[C@@H]1CCCCCC[C@H]2O`, the EC50 is over 200 µM and the IC50 is over 200 µM.

As to `Cc1ccc(-c2[nH]c(=O)n(C3OC(CO)C(O)C(O)C3O)c(=O)c2C#N)cc1` (stereo unspecified), the EC50 was over 200 µM and the IC50 is over 200 µM.

In the case of `O=C(O)c1cc([N+](=O)[O-])cc([N+](=O)[O-])c1/C=C/n1c(=S)[nH]c2ccc([N+](=O)[O-])cc21`, the EC50 is over 100 µM and the 50% inhibitory concentration (IC50) was 91.2 µM.

With `N#CC(NNC(=O)c1ccccc1O)c1ccccc1O` (stereo unspecified), the EC50 was over 91.2 µM and the IC50 is 1.58 µM.

With `CCOC(=O)c1nc(SC)sc1NC(=O)c1ccc([N+](=O)[O-])cc1`, the EC50 is over 200 µM and the IC50 was over 200 µM.

Take `O=c1c2cc(-c3ccccc3)sc2nc2n1N=C(c1ccccc1)CS2`: the EC50 is over 200 µM and the IC50 is over 200 µM.

Consider `CCSC1=N/C(=C\c2ccco2)C(=O)N1`, for which the EC50 was over 200 µM and the IC50 was over 200 µM.

On to `COc1cc(C(=O)O)ccc1OS(=O)(=O)O`, for which the EC50 is over 200 µM and the half-maximal inhibitory concentration (IC50) was over 200 µM.

Turning to `O=C1NCC2(CCN(CC3COc4ccccc4O3)CC2)N1c1ccccc1` (stereo unspecified), the EC50 was over 200 µM and the IC50 is over 200 µM.

Consider `O=P(O)(O)C=C=C1CCCCC1`, for which the EC50 was over 200 µM and the IC50 is over 200 µM.

As for `CC(=O)N1CN2C(=O)CCC2c2ccccc21` (stereo unspecified), the outcome was inactive.

Consider `COc1ccccc1-n1c(NN)nc2ccc(Br)cc2c1=O`, for which the EC50 is over 138 µM and the concentration for half-maximal inhibition (IC50) was 30.9 µM.

Take `CN(C)COC(=S)[S-].CN(C)COC(=S)[S-].CN(C)COC(=S)[S-].[Fe+6]`: the EC50 was over 2 µM and the IC50 turned out to be 0.363 µM.

Consider `CC(C)=CCc1ccc2[nH]c3c(c2c1)C(=O)C(=O)C(C)=C3C(O)C(C)O` (stereo unspecified), for which the EC50 is over 200 µM and the IC50 came out at 1.95 µM.

Turning to `Clc1cc2cc3c(Br)coc3nc2cc1Cl`, the EC50 is over 16.2 µM and the concentration for half-maximal inhibition (IC50) was over 16.2 µM.

With `C=C1C(OC(=O)C(O)C(c2ccccc2)N(C)C)CC(OC(C)=O)[C@]2(C)C1C[C@@H]1CC(=O)C(C)=C([C@@H](OC(C)=O)C2OC(C)=O)C1(C)C` (stereo partly specified), the EC50 was over 93.3 µM and the IC50 was over 93.3 µM.

In the case of `NC(=O)C(F)C(N)=O`, the EC50 is over 200 µM and the IC50 is over 200 µM.

Consider `CCOC(=O)C1(C(=O)OCC)C[C@@H](C)[C@@H](O)C1`, for which the EC50 was over 200 µM and the IC50 was over 200 µM.

For `Cc1c2c(n(CCc3ccc(Cl)cc3)c1C)NN=C(C#N)S2(=O)=O`, the EC50 was over 200 µM and the concentration for half-maximal inhibition (IC50) worked out at 85.1 µM.

As for `COC(=O)c1cc(O)ccc1NC(=O)c1ccc(O)cc1`, the EC50 is over 912 µM and the concentration for half-maximal inhibition (IC50) was found to be 363 µM.

`CCCCN(CCCC)NC(=S)Nc1ccccc1`: the EC50 was over 35.5 µM and the IC50 was over 35.5 µM.

`N#CCCN(C1=NN(C(=O)CC(=O)Nc2ccccc2)C(c2ccccc2)C1)c1ccccc1Cl` (stereo unspecified): the EC50 was over 269 µM and the half-maximal inhibitory concentration (IC50) is over 269 µM.

Turning to `O=C(Nc1ccc(N=Nc2ccccc2)cc1)Sc1ccccc1C(=O)O`, the result was inactive.

As to `COc1cc(Br)c(CCC#N)cc1OC`, the EC50 was over 347 µM and the 50% inhibitory concentration (IC50) came to 37.2 µM.

Values taken from PubChem BioAssay AID179 (DTP/NCI, 2004).
